Series [1] in a line: Plasma stability, dog. Conditions: for Remaining percentage: after 30 minutes. Here is the method:
The frozen plasma was immediately melted in a water bath of 37° C. The plasma was centrifuged at 3, 220 g for 10 minutes to remove the blood clots and the supernatant was collected into a new test tube. The pH of the plasma was checked and recorded. Note: a. Only plasma that has been melted no more than twice since arrival was used; b. Only plasma in the range of pH 7 to pH 8 was used.
1 mM of working solutions of the test compound and the control compound mevinolin were prepared in DMSO. 1 mM of the working solution of the control compound solution in […] was prepared in acetonitrile. 4 μL of the working solution was added to 796 μL of pre-incubated plasma to achieve 5 μM of final concentration. The final concentration of solvent was 0.5%.
The aliquots of 50 μL of the standard addition plasma were added to new test tubes and incubated in the water bath of 37° C. at approximately 60 rpm for 2 hours. The assay is performed in duplicate. At the end of the two hour incubation, 300 μL of quenched solution at room temperature (acetonitrile containing internal standards (acetonitrile, 100 nM Alprazolam, 500 nM Labetalol and 2 μM ketoprofen)) was added to terminate the reaction. Samples at time 0 were prepared by adding 50 μL of standard addition plasma to the new test tubes with 300 μL of quenched solution at room temperature. The test tubes were mixed by vortex for 5 minutes. The samples in the plates were centrifuged at 3, 220×g for 30 minutes at 4° C. to precipitate the proteins. 100 μL of supernatant was transferred to a new plate. The supernatant was diluted with 100 μL of water, mixed well and analysed using LC-MS/MS.

For series [2], the system named is HuPrime model GA6201 human gastric cancer subcutaneous transplantation PDX tumor. Description: GA6201 human gastric cancer subcutaneous PDX model. The series is classed as in vivo, BALB/c nude mice. The note with it: for tumor volume: Group 06, 5-50 mg/kg regimen.
A short description of series [3]: Blood-brain barrier experiment, brain and plasma concentrations after IV dosing. The series is classed as in vivo, CD-1 mice. The note with it: for half-life: read-out: T½ (converted). The protocol:
Three CD-1 […] were administered 1 mg/kg of the test compound intravenously at each time point. Blood and brain tissue were collected at 5 min, 15 min, 1 h, 2 h, 4 h and 8 h after administration.

Experiment in series [4]: as above
Conditions: CD-1, mouse. The format is in vivo, CD-1 mice.

Setting [5] is: CD-1, mouse, plasma, IV 1 mg/kg.
The mark [6] stands for this setting: IV 1 mg/kg, 0.083 h, single animals, 1 mg/kg.
[7] abbreviates: IV 1 mg/kg, 0.25 h, single animals, 1 mg/kg.
Where [8] appears, read: IV 1 mg/kg, 1 h, single animals, 1 mg/kg.
Where [9] appears, read: IV 1 mg/kg, 2 h, single animals, 1 mg/kg.
The mark [10] stands for this setting: IV 1 mg/kg, 4 h, single animals, 1 mg/kg.
[11] abbreviates: IV 1 mg/kg, 8 h, single animals.

“And” between values parts separate entries of the source, which are not always exact repeats. Equal entries are not always repeated. Where two headings read alike, the source gives them in different places. Marks after values point to notes of the source that are not given here. Some results are limits rather than exact numbers.

Consider `CC(OP(=O)(N1CC1)N1CC1)c1ccc([N+](=O)[O-])c2ccccc12` (centres unmarked) [Compound D], for which the Remaining percentage in series [1] (Dog plasma) is 91.95%. Besides, the “plasma stability” value in series [1] (dog plasma) is “relatively stable”.

Regarding `O=[N+]([O-])c1ccc(C(OP(=O)(N2CC2)N2CC2)C(F)(F)F)c2ccccc12` (racemic) [Compound A], the “Remaining percentage (%)” value in series [1] (Dog plasma, 15 min) is 107 ± 2.54%; in series [1] (Dog plasma, 60 min), 101 ± 5.20%; in series [1] (Dog plasma, 90 min) it was 105 ± 3.67%; in series [1] (Dog plasma, 120 min), 98.9% and 98.9 ± 0.476%; in series [1] (Dog plasma, 2 h time course, 0 min), 100%; in series [1] (Dog plasma, time course, 30 min), 105 ± 1.27%. Also, the Remaining percentage in series [1] (Dog plasma) is given as 85.04%. The t½ in series [1] (Dog plasma, in vitro) is listed as >373* min. The half-life at 5 µM in series [1] (dog plasma) is more than 373 min. Further, the “plasma stability” value in series [1] (dog plasma) was “stable”. The “effect of tumor growth inhibition compared with isocyclophosphamide” value in series [2] (GA6201 PDX) is reported as “significant advantages”. Further, the tumor volume in series [2] (day 7) was determined as 123.19 mm^3; in series [2] (day 17), 219.91 mm^3; in series [2] (day 21), 246.57 mm^3; in series [2] (day 24) it was 271.72 mm^3; in series [2] (day 31) it was 270.68 mm^3; in series [2] (day 35), 299.31 mm^3. In addition, the tumor volume came out at 277.17 mm^3 in series [2] (day 38), 342.08 mm^3 in series [2] (day 45) and 287.47 mm^3 in series [2] (day 49).

Regarding `O=[N+]([O-])c1ccc([C@H](OP(=O)(N2CC2)N2CC2)C(F)(F)F)c2ccccc12` [Compound B], the concentration at 0.083 h in series [3] (CD-1, mouse, brain, iv, 1 mg/kg, IV 1 mg/kg, 0.083 h, single animals, read-out: Brain concentration) came to 992 ng/g; in series [3] (CD-1, mouse, plasma, iv, 1 mg/kg, IV 1 mg/kg, 0.083 h, single animals, read-out: Plasma concentration) it was 454 ng/mL. Also, the concentration at 0.25 h came to 499 ng/g in series [3] (CD-1, mouse, brain, iv, 1 mg/kg, IV 1 mg/kg, 0.25 h, single animals, read-out: Brain concentration) and 341 ng/mL in series [3] (CD-1, mouse, plasma, iv, 1 mg/kg, IV 1 mg/kg, 0.25 h, single animals, read-out: Plasma concentration). For the same compound, the concentration at 1 h in series [3] (CD-1, mouse, brain, iv, 1 mg/kg, IV 1 mg/kg, 1 h, single animals, read-out: Brain concentration) was determined as 88.1 ng/g; in series [3] (CD-1, mouse, plasma, iv, 1 mg/kg, IV 1 mg/kg, 1 h, single animals, read-out: Plasma concentration) it was 70 ng/mL. In addition, the concentration at 2 h in series [3] (CD-1, mouse, brain, iv, 1 mg/kg, IV 1 mg/kg, 2 h, single animals, read-out: Brain concentration) worked out at 9 ng/g; in series [3] (CD-1, mouse, plasma, iv, 1 mg/kg, IV 1 mg/kg, 2 h, single animals, read-out: Plasma concentration), 8.54 ng/mL. Further, the concentration at 4 h in series [3] (CD-1, mouse, brain, iv, 1 mg/kg, IV 1 mg/kg, 4 h, single animals) was 1.34 ng/g. Besides, the Kp at 0.083 h is 2.25 in series [3] (CD-1, mouse, brain/plasma, iv, 1 mg/kg, IV 1 mg/kg, 0.083 h, read-out: Mean Ratio (Brain/Plasma)) and 2.18 in series [3] (CD-1, mouse, brain/plasma, iv, 1 mg/kg, IV 1 mg/kg, 0.083 h, single animals, read-out: Ratio (Brain/Plasma)). The Kp at 0.25 h in series [3] (CD-1, mouse, brain/plasma, iv, 1 mg/kg, IV 1 mg/kg, 0.25 h, single animals, read-out: Ratio (Brain/Plasma)) was 1.47; in series [4] (brain/plasma, iv, 1 mg/kg, 0.25 h, read-out: Mean Ratio (Brain/Plasma)), 1.59. For the same compound, the Kp at 1 h in series [3] (CD-1, mouse, brain/plasma, iv, 1 mg/kg, IV 1 mg/kg, 1 h, read-out: Mean Ratio (Brain/Plasma)) stood at 1.39; in series [3] (CD-1, mouse, brain/plasma, iv, 1 mg/kg, IV 1 mg/kg, 1 h, single animals, read-out: Ratio (Brain/Plasma)), 1.26. Also, the Kp at 2 h amounted to 1.34 in series [3] (CD-1, mouse, brain/plasma, iv, 1 mg/kg, IV 1 mg/kg, 2 h, read-out: Mean Ratio (Brain/Plasma)) and 1.38 in series [4] (brain/plasma, iv, 1 mg/kg, 2 h, single animals, read-out: Ratio (Brain/Plasma)). The Kp at 4 h in series [3] (CD-1, mouse, brain/plasma, iv, 1 mg/kg, IV 1 mg/kg, 4 h, single animals, read-out: Ratio (Brain/Plasma)) was found to be 1.19. Besides, the Kp in series [3] (CD-1, mouse, brain/plasma, iv, 1 mg/kg, IV 1 mg/kg, read-out: AUClnf Ratio (Brain/Plasma)) was 1.49. Besides, the half-life in series [3] (CD-1, mouse, brain tissue, IV 1 mg/kg) was 19.8 min; in series [3] (setting [5]), 27 min. The compound also registered an AUC(0-t) in series [3] (setting [5]) of 289 ng·h/mL. For the same compound, the C0 in series [3] (setting [5]) came to 532 ng/mL. Also, the Brain concentration in series [3] (setting [6]) was 1038.97 ng/g and 916.57 ng/g; in series [3] (setting [7]), 480.24 ng/g and 420.87 ng/g; in series [3] (setting [8]) it was 104.66 ng/g and 103.20 ng/g; in series [3] (setting [9]), 13.14 ng/g and 15.08 ng/g; in series [3] (setting [10]), “BLOQ”; in series [3] (setting [11]), “BLOQ”. The Plasma concentration in series [3] (setting [6]) was 485.00 ng/mL and 393.31 ng/mL; in series [3] (setting [7]), 289.25 ng/mL and 256.49 ng/mL; in series [3] (setting [8]), 87.46 ng/mL and 75.23 ng/mL; in series [3] (setting [9]) it was 9.83 ng/mL and 11.45 ng/mL; in series [3] (setting [10]), 1.13 ng/mL and 0.52 ng/mL and 0.28 ng/mL; in series [3] (setting [11]) it was “BLOQ”. Besides, the “Ratio (Brain/Plasma)” value is 2.23 and 2.33 in series [3] (setting [6]); 1.66 and 1.64 in series [3] (setting [7]); 1.55 and 1.37 in series [3] (setting [8]); 1.32 in series [3] (setting [9]). The AUClast in series [3] (brain tissue, IV 1 mg/kg) stood at 429.34 ng·h/g. Also, the AUClnf in series [3] (brain tissue, IV 1 mg/kg) turned out to be 435.32 ng·h/g. Also, the MRTlnf_obs in series [3] (brain tissue, IV 1 mg/kg) is 24.6 min; in series [3] (plasma, IV 1 mg/kg), 27.6 min. Besides, the blood-brain barrier penetration result in series [3] (detected in brain tissue) is given as “can penetrate the blood-brain barrier”. This compound also gave a Cl_obs in series [3] (plasma, IV 1 mg/kg) of 57.63 mL/min/kg. Moreover, the Vss_obs in series [3] (plasma, IV 1 mg/kg) is on record as 1.59 L/kg. In series [4] (brain tissue, IV 1 mg/kg), this compound registered a maximum concentration (Cmax) of 983 ng/g. In series [4] (brain tissue, IV 1 mg/kg), the Tmax was 4.8 min. The compound further showed an AUC in series [4] (plasma, IV 1 mg/kg) of 289 ng·h/mL.

Values taken from patent US20230339991A1, “HYPOXIA-ACTIVATED DNA ALKYLATING AGENT AND MEDICAL USE THEREOF” (ASCENTAWITS PHARMACEUTICALS, LTD., priority 2020, published 2023).
